Experimental data as given in paper PMC5011342, “A high throughput drug screening assay to identify compounds that promote oligodendrocyte differentiation using acutely dissociated and purified oligodendrocyte precursor cells” (BMC Research Notes, 2016).
Like-named read-outs stand apart in the source and are kept apart here.

Columns and labels:
expanded OPCs = test: cells; details: for viability at 0.1 µM / viability at 1 µM / viability at 10 µM: Rattus norvegicus, 72 h; for 0.1 µM (% DMSO) / 1 µM (% DMSO) / 10 µM (% DMSO): alamarBlue viability of expanded OPCs, relative to DMSO control; for 0.1 µM (% DMSO): compound at 0.1 µM; for 1 µM (% DMSO): compound at 1 µM; for 10 µM (% DMSO): compound at 10 µM
How it was run: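 Expanded OPCs seeded at 10,000 cells/well in differentiation media, then exposed to NCC library compounds at 10, 1 and 0.1 µM (quadruplicate, 0.1% DMSO) for three days. Viability read as alamarBlue fluorescence (560/590 nm) after 4 h at 37 °C; tunicamycin 5 ng/ml served as toxicity control.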

[1] = system: acutely dissociated and purified rat OPCs; test: Acute OL differentiation assay (MBP expression/cell, immunofluorescent image quantification); type: cell-based; details: for activation at 2 µM / activation at 10 µM / activation at 0.4 µM / EC50: Rattus norvegicus; for EC50: average EC50 for induction of OL differentiation from independent biological replicates, eight concentrations; for hit in OL differentiation assay, MRF-TMC: ● = confirmed hit in this paper's assay
How it was run: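 Oligodendrocyte precursor cells were enriched from P6-P7 Sprague–Dawley rat brains by immunopanning (RAN-2 and GalC depletion, O4 selection), plated at 5000 cells/well in serum-free, mitogen-free differentiation media on PDL/laminin 96-well view plates, centrifuged at 200×g, and pre-incubated 1–2 h before test compounds were added in quadruplicate. On DIV4, cells were fixed, stained for MBP and DAPI, imaged automatically, and MBP expression per cell was quantified.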

[2] = read-out: 0.1 µM (% DMSO), alamarBlue viability of expanded OPCs, compound at 0.1 µM, sheet All Tox data
[3] = read-out: 1 µM (% DMSO), alamarBlue viability of expanded OPCs, compound at 1 µM, sheet All Tox data
[4] = read-out: 10 µM (% DMSO), alamarBlue viability of expanded OPCs, compound at 10 µM, sheet All Tox data
[5] = 2 uM test compound, relative to quetiapine, sheet "All OLga data", read-out: OL differentiation, 2 uM (% Quet)
[6] = 10 uM test compound, relative to quetiapine, sheet "All OLga data", read-out: OL differentiation, 10 uM (% Quet)
[7] = test compound at 2 uM, MBP expression relative to quetiapine, NCC library screen, sheet "All OLga data", read-out: 2 uM (% Quet)
[8] = test compound at 10 uM, MBP expression relative to quetiapine, NCC library screen, sheet "All OLga data", read-out: 10 uM (% Quet)
[9] = 0.4 uM test compound, relative to quetiapine, sheet "All OLga data", read-out: OL differentiation, 0.4 uM (% Quet)
[10] = read-out: 0.1 µM (% DMSO), alamarBlue viability, NCC library compound at 0.1 µM, sheet "All Tox data"
[11] = read-out: 1 µM (% DMSO), alamarBlue viability, NCC library compound at 1 µM, sheet "All Tox data"
[12] = read-out: 10 µM (% DMSO), alamarBlue viability, NCC library compound at 10 µM, sheet "All Tox data"
[13] = test compound at 2 uM, NCC library screen, sheet "All OLga data", relative to quetiapine, read-out: 2 uM (% Quet)

`CCN(CC)CCOC(=O)C(O)(c1ccccc1)c1ccccc1` [Benactyzine] gave a viability at 0.1 µM (expanded OPCs; read-out: 0.1 µM (% DMSO)) of 100%, a viability at 1 µM (expanded OPCs; read-out: 1 µM (% DMSO)) of 88.2% and a viability at 10 µM (expanded OPCs; read-out: 10 µM (% DMSO)) of 90%. For the same molecule, the activation at 2 µM ([1]; read-out: 2 uM (% Quet)) was -1.9% and the activation at 10 µM ([1]; read-out: 10 uM (% Quet)) was -2.1%.
`CCOC(=O)[C@H](CCc1ccccc1)N[C@H]1CCc2ccccc2N(CC(=O)O)C1=O` [Benazepril] was tested, and the viability at 0.1 µM (expanded OPCs; [2]) was 84.6%, the viability at 1 µM (expanded OPCs; [3]) was 88.2% and the viability at 10 µM (expanded OPCs; [4]) was 93.6%. The activation at 2 µM [1, 5] was -27.7% and the activation at 10 µM [1, 6] was -26.2%.
With `NS(=O)(=O)c1cc2c(cc1C(F)(F)F)NC(Cc1ccccc1)NS2(=O)=O` (centres unmarked) [Bendroflumethiazide] the “0.1 µM (% DMSO)” value (expanded OPCs) was 95.4 % DMSO, the “1 µM (% DMSO)” value (expanded OPCs) was 93.1 % DMSO and the “10 µM (% DMSO)” value (expanded OPCs) was 98.5 % DMSO. The activation at 2 µM [1, 7] was -41.7% and the activation at 10 µM [1, 8] was -47.6%.
Work on `COC(=O)C1=C(C)NC(C)=C(C(=O)OC2CCCN(Cc3ccccc3)C2)C1c1cccc([N+](=O)[O-])c1` (centres unmarked) [Benidipine] yielded a viability at 0.1 µM (expanded OPCs; [2]) of 84.6%, a viability at 1 µM (expanded OPCs; [3]) of 93% and a viability at 10 µM (expanded OPCs; [4]) of 11.6%. For the same molecule, the activation at 0.4 µM [1, 9] was 7.1% and the activation at 2 µM [1, 5] was 3.1%.
Work on `CC(COc1ccccc1Cc1ccccc1)N1CCCCC1` (centres unmarked) [Benproperine, reference compound] yielded a viability at 0.1 µM (expanded OPCs; [2]) of 105%, a viability at 1 µM (expanded OPCs; [3]) of 123% and a viability at 10 µM (expanded OPCs; [4]) of 20.9%. For the same molecule, the activation at 0.4 µM [1, 9] was 82.1%, the activation at 2 µM [1, 5] was 99.4% and the EC50 [1] was 800 nM. The “hit in OL differentiation assay, MRF-TMC” value [1] was “●”.
`CN1[C@@H]2CC[C@H]1C[C@@H](OC(c1ccccc1)c1ccccc1)C2` [Benzatropine] was tested, and the “0.1 µM (% DMSO)” value (expanded OPCs) was 139.9 % DMSO, the “1 µM (% DMSO)” value (expanded OPCs) was 133.9 % DMSO and the “10 µM (% DMSO)” value (expanded OPCs) was 38.5 % DMSO. For the same molecule, the activation at 0.4 µM ([1]; test compound at 0.4 uM, MBP expression relative to quetiapine, NCC library screen, sheet "All OLga data", read-out: 0.4 uM (% Quet)) was 123% and the activation at 2 µM [1, 7] was 102%.
With `CCc1oc2ccccc2c1C(=O)c1cc(Br)c(O)c(Br)c1` [Benzbromarone] the viability at 0.1 µM (expanded OPCs; [10]) was 95.3%, the viability at 1 µM (expanded OPCs; [11]) was 93.2% and the viability at 10 µM (expanded OPCs; [12]) was 35.6%. It also gave an activation at 0.4 µM ([1]; test compound at 0.4 uM, NCC library screen, sheet "All OLga data", relative to quetiapine, read-out: 0.4 uM (% Quet)) of -1.1% and an activation at 2 µM [1, 13] of 23.7%.
Work on `CC(C)NCC(O)COc1ccc(CCOCC2CC2)cc1` (centres unmarked) [Betaxolol, reference compound] yielded a viability at 0.1 µM (expanded OPCs; [10]) of 102%, a viability at 1 µM (expanded OPCs; [11]) of 97.8% and a viability at 10 µM (expanded OPCs; [12]) of 104%. The activation at 2 µM [1, 5] was 32.8%, the activation at 10 µM [1, 6] was 51.8% and the EC50 [1] was 4200 nM. For the same molecule, the “hit in OL differentiation assay, MRF-TMC” value [1] was “●”.
With `CC(C[N+](C)(C)C)OC(N)=O` (centres unmarked) [Bethanechol] the “0.1 µM (% DMSO)” value (expanded OPCs) was 87.6 % DMSO, the “1 µM (% DMSO)” value (expanded OPCs) was 93.0 % DMSO and the “10 µM (% DMSO)” value (expanded OPCs) was 88.2 % DMSO. The activation at 2 µM [1, 7] was -1% and the activation at 10 µM [1, 8] was -21.7%.
For `CC(O)(CS(=O)(=O)c1ccc(F)cc1)C(=O)Nc1ccc(C#N)c(C(F)(F)F)c1` (centres unmarked) [Bicalutamide], the viability at 0.1 µM (expanded OPCs; [2]) was 93.3%, the viability at 1 µM (expanded OPCs; [3]) was 96% and the viability at 10 µM (expanded OPCs; [4]) was 119%. For the same molecule, the activation at 2 µM [1, 5] was -3% and the activation at 10 µM [1, 6] was 6.9%.
For `c1ccc(-c2ccc(C(c3ccccc3)n3ccnc3)cc2)cc1` (centres unmarked) [Bifonazole, reference compound], the viability at 0.1 µM (expanded OPCs; [10]) was 121%, the viability at 1 µM (expanded OPCs; [11]) was 187% and the viability at 10 µM (expanded OPCs; [12]) was 11.9%. It also gave an activation at 0.4 µM [1, 9] of 67.3%, an activation at 2 µM [1, 5] of 105% and an EC50 [1] of 1700 nM. The “hit in OL differentiation assay, MRF-TMC” value [1] was “●”.
`O=C1CC2(CCCC2)CC(=O)N1CCNCC1COc2ccccc2O1` (centres unmarked) [Binospirone] showed a viability at 0.1 µM (expanded OPCs; [10]) of 96%, a viability at 1 µM (expanded OPCs; [11]) of 97.6% and a viability at 10 µM (expanded OPCs; [12]) of 97.4%. It also gave an activation at 2 µM [1, 13] of 37.7% and an activation at 10 µM ([1]; test compound at 10 uM, NCC library screen, sheet "All OLga data", relative to quetiapine, read-out: 10 uM (% Quet)) of 14.1%.
With `CC(C)NCC(O)COc1ccc(COCCOC(C)C)cc1` (centres unmarked) [Bisoprolol] the viability at 0.1 µM (expanded OPCs; [2]) was 91.3%, the viability at 1 µM (expanded OPCs; [3]) was 89.8% and the viability at 10 µM (expanded OPCs; [4]) was 96.5%. The activation at 2 µM [1, 5] was -18.8% and the activation at 10 µM [1, 6] was -17.3%.
